# Tested on: 885724-159-R-J1-PDC complex spheroid viability
# Experiment: Anticancer human tumor 885724-159-R-J1-PDC patient-derived pancreatic adenocarcinoma cell line growth inhibition [GQUAD]
# Settings: for IC50: curve of first compound; for viability, T/C: stronger effect = lower value
# Procedure, shortened: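 Tumor cells were grown as complex spheroids with HUVEC endothelial cells and mesenchymal stem cells as stroma. G-quadruplex stabilizers were combined with targeted agents over half-log dilutions from near the clinical Cmax, or from 10 microM.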
# [1] = second compound 0.0316 µM, first compound 0.0316 µM
# [2] = second compound 0.0316 µM, first compound 0.1 µM
# [3] = second compound 0.0316 µM, first compound 0.316 µM
# [4] = second compound 0.0316 µM, first compound 1 µM
# [5] = second compound 0.0316 µM, first compound 3.16 µM
# [6] = second compound 0.0316 µM, first compound 10 µM
# [7] = second compound 0.1 µM, first compound 0.0316 µM
# [8] = second compound 0.1 µM, first compound 0.1 µM
# [9] = second compound 0.1 µM, first compound 0.316 µM
# [10] = second compound 0.1 µM, first compound 1 µM
# [11] = second compound 0.1 µM, first compound 3.16 µM
# [12] = second compound 0.1 µM, first compound 10 µM
# [13] = second compound 0.316 µM, first compound 0.0316 µM
# [14] = second compound 0.316 µM, first compound 0.1 µM
# [15] = second compound 0.316 µM, first compound 0.316 µM
# [16] = second compound 0.316 µM, first compound 1 µM
# [17] = second compound 0.316 µM, first compound 3.16 µM
# [18] = second compound 0.316 µM, first compound 10 µM
# [19] = second compound 1 µM, first compound 0.0316 µM
# [20] = second compound 1 µM, first compound 0.1 µM
# [21] = second compound 1 µM, first compound 0.316 µM
# [22] = second compound 1 µM, first compound 1 µM
# [23] = second compound 1 µM, first compound 3.16 µM
# [24] = second compound 1 µM, first compound 10 µM
# [25] = second compound 3.16 µM, first compound 0.0316 µM
# [26] = second compound 3.16 µM, first compound 0.1 µM
# [27] = second compound 3.16 µM, first compound 0.316 µM
# [28] = second compound 3.16 µM, first compound 1 µM
# [29] = second compound 3.16 µM, first compound 3.16 µM
# [30] = second compound 3.16 µM, first compound 10 µM
# [31] = second compound 10 µM, first compound 0.0316 µM
# [32] = second compound 10 µM, first compound 0.1 µM
# [33] = second compound 10 µM, first compound 0.316 µM
# [34] = second compound 10 µM, first compound 1 µM
# [35] = second compound 10 µM, first compound 3.16 µM
# [36] = second compound 10 µM, first compound 10 µM
# 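Further: spheroids exposed to agents for seven days before readout.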
# 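Wherever viability, T/C is given: percent of vehicle control viability where 100% = DMSO wells.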
compound,measurement,setting,value
Nc1ccn(C2OC(CO)C(O)C2(F)F)c(=O)n1 (stereo unspecified) + CN(C)c1ccc(Nc2c3ccc(NC(=O)CCN4CCCC4)cc3nc3cc(NC(=O)CCN4CCCC4)ccc23)cc1,IC50,second compound 0.0316 µM,> 10 µM
same,IC50,second compound 0.1 µM,> 10 µM
same,IC50,second compound 0.316 µM,> 10 µM
same,IC50,second compound 1 µM,> 10 µM
same,IC50,second compound 3.16 µM,1.83 µM
same,IC50,second compound 10 µM,> 10 µM
same,"viability, T/C",[1],79.8%
same,"viability, T/C",[2],90.2%
same,"viability, T/C",[3],71%
same,"viability, T/C",[4],72.9%
same,"viability, T/C",[5],63.8%
same,"viability, T/C",[6],66.3%
same,"viability, T/C",[7],102%
same,"viability, T/C",[8],89.3%
same,"viability, T/C",[9],72.8%
same,"viability, T/C",[10],64.2%
same,"viability, T/C",[11],68.6%
same,"viability, T/C",[12],67%
same,"viability, T/C",[13],89.5%
same,"viability, T/C",[14],77.8%
same,"viability, T/C",[15],74.9%
same,"viability, T/C",[16],56.8%
same,"viability, T/C",[17],74%
same,"viability, T/C",[18],59.8%
same,"viability, T/C",[19],72%
same,"viability, T/C",[20],60.6%
same,"viability, T/C",[21],75%
same,"viability, T/C",[22],51.4%
same,"viability, T/C",[23],65.2%
same,"viability, T/C",[24],50.6%
same,"viability, T/C",[25],76.8%
same,"viability, T/C",[26],64.1%
same,"viability, T/C",[27],60.3%
same,"viability, T/C",[28],47.1%
same,"viability, T/C",[29],52.5%
same,"viability, T/C",[30],44.7%
same,"viability, T/C",[31],72.6%
same,"viability, T/C",[32],63.9%
same,"viability, T/C",[33],47.9%
same,"viability, T/C",[34],61.2%
same,"viability, T/C",[35],52.1%
same,"viability, T/C",[36],52.5%
CC(=O)O[C@H]1C(=O)[C@@]2(C)[C@H]([C@H](OC(=O)c3ccccc3)[C@]3(O)C[C@H](OC(=O)[C@H](O)[C@@H](NC(=O)c4ccccc4)c4ccccc4)C(C)=C1C3(C)C)[C@]1(OC(C)=O)CO[C@@H]1C[C@@H]2O + Cc1[nH]c2ccc(F)cc2c1-c1nc2c3cccnc3c3ncccc3c2[nH]1,IC50,second compound 0.0316 µM,> 10 µM
same,IC50,second compound 0.1 µM,> 10 µM
same,IC50,second compound 0.316 µM,> 10 µM
same,IC50,second compound 1 µM,> 10 µM
same,IC50,second compound 3.16 µM,< 0.0316 µM
same,IC50,second compound 10 µM,> 10 µM
same,"viability, T/C",[1],102%
same,"viability, T/C",[2],76.5%
same,"viability, T/C",[3],85.7%
same,"viability, T/C",[4],91.4%
same,"viability, T/C",[5],81.6%
same,"viability, T/C",[6],83.3%
same,"viability, T/C",[7],112%
same,"viability, T/C",[8],83.2%
same,"viability, T/C",[9],78%
same,"viability, T/C",[10],84.8%
same,"viability, T/C",[11],86.5%
same,"viability, T/C",[12],87%
same,"viability, T/C",[13],87.8%
same,"viability, T/C",[14],77.8%
same,"viability, T/C",[15],82.8%
same,"viability, T/C",[16],79.6%
same,"viability, T/C",[17],80.8%
same,"viability, T/C",[18],80.2%
same,"viability, T/C",[19],69.5%
same,"viability, T/C",[20],54.7%
same,"viability, T/C",[21],61.8%
same,"viability, T/C",[22],51.1%
same,"viability, T/C",[23],78.6%
same,"viability, T/C",[24],55.5%
same,"viability, T/C",[25],16.7%
same,"viability, T/C",[26],6.91%
same,"viability, T/C",[27],7.17%
same,"viability, T/C",[28],8.73%
same,"viability, T/C",[29],10%
same,"viability, T/C",[30],5.61%
same,"viability, T/C",[31],56.7%
same,"viability, T/C",[32],53.2%
same,"viability, T/C",[33],54.5%
same,"viability, T/C",[34],55%
same,"viability, T/C",[35],68.5%
same,"viability, T/C",[36],59.2%
CCCS(=O)(=O)Nc1ccc(F)c(C(=O)c2c[nH]c3ncc(-c4ccc(Cl)cc4)cc23)c1F + Cc1cnc(CNC(=O)c2c(=O)c3ccc(N4CCCN(C)CC4)nc3n3c2sc2ccccc23)cn1,IC50,second compound 0.0316 µM,> 10 µM
same,IC50,second compound 0.1 µM,> 10 µM
same,IC50,second compound 0.316 µM,> 10 µM
same,IC50,second compound 1 µM,> 10 µM
same,IC50,second compound 3.16 µM,> 10 µM
same,IC50,second compound 10 µM,> 10 µM
same,"viability, T/C",[1],95%
same,"viability, T/C",[2],106%
same,"viability, T/C",[3],113%
same,"viability, T/C",[4],141%
same,"viability, T/C",[5],126%
same,"viability, T/C",[6],74%
same,"viability, T/C",[7],124%
same,"viability, T/C",[8],128%
same,"viability, T/C",[9],116%
same,"viability, T/C",[10],135%
same,"viability, T/C",[11],128%
same,"viability, T/C",[12],83%
same,"viability, T/C",[13],94%
same,"viability, T/C",[14],103%
same,"viability, T/C",[15],96.3%
same,"viability, T/C",[16],98%
same,"viability, T/C",[17],102%
same,"viability, T/C",[18],72.2%
same,"viability, T/C",[19],97.6%
same,"viability, T/C",[20],84.6%
same,"viability, T/C",[21],96%
same,"viability, T/C",[22],96.7%
same,"viability, T/C",[23],115%
same,"viability, T/C",[24],70.6%
same,"viability, T/C",[25],76.7%
same,"viability, T/C",[26],75.2%
same,"viability, T/C",[27],78.8%
same,"viability, T/C",[28],80.3%
same,"viability, T/C",[29],91.6%
same,"viability, T/C",[30],58.7%
same,"viability, T/C",[31],62.8%
same,"viability, T/C",[32],71.2%
same,"viability, T/C",[33],61.1%
same,"viability, T/C",[34],73.4%
same,"viability, T/C",[35],76%
same,"viability, T/C",[36],50.2%

# — PubChem BioAssay AID2060502 (Molecular Pharmacology Branch, DTP, NCI, 2025)
